# From a melting point compilation (Tetko et al.; mined from patent text by program, amines drawn as free bases though some values may be those of a salt)
row,Compound,melting point
1,O=C(O)Cc1ccc(CN2CCN(c3ccccc3C(=O)O)CC2)cc1,179 to 181 °C
2,O=C(c1ccc([N+](=O)[O-])cc1)c1ccc2[nH]c(=O)sc2c1,148 to 152 °C
3,CCc1nc2c(N)nc3cccnc3c2n1NCCCNS(C)(=O)=O,176 to 178 °C
4,CN1CCC(c2c[nH]c3ccc(OS(=O)(=O)c4ccc(Cl)cc4)cc23)CC1,182 to 184 °C
5,C#Cc1ccc(Oc2cc(C(=O)Cl)cc(C(=O)Cl)c2)cc1,68 to 69 °C
6,O=C1N(Cc2ccc(C(F)(F)F)o2)c2ccccc2C12COc1cc3c(cc12)OC(F)(F)O3 (stereo not drawn),59 to 60 °C
7,CCOC(=O)c1sc(=O)[nH]c1C(Cl)(Cl)Cl,109 to 110 °C
8,CCCCCCCCCCCCc1ccc2nc3c(c(O)c2c1)CCCC3,225 to 226 °C
9,CC(C)c1cccc(C(C)C)c1NC(=O)CN1CCN(CCSc2nc3cccc(S(C)=O)c3o2)CC1 (stereo not drawn),119 to 120 °C
10,NS(=O)(=O)c1cc(C(=O)CCCCN(CCc2ccccc2OC(F)(F)F)C(=O)C(F)(F)F)cc2c1OCC2,108 to 110 °C
11,COC(=O)c1coc2ccc(C)cc12,40 to 41 °C
12,CC(=C1SC(=O)NC1=O)c1ccc(OCCOc2c(-c3ccccc3F)n(C)c3ccccc3c2=O)c(Cl)c1,220 to 222 °C
13,CC(C)(C)NCC(O)COC(=O)c1ccc(OCc2ccccc2)c(OCc2ccccc2)c1 (stereo not drawn),85 to 86 °C
14,CCC(=O)Nc1cc(-c2c(-c3cccc(C)c3)nc3cccnn23)ccn1,138 to 139 °C
15,COc1cc(Nc2nccc(-c3nc(C)c(C)s3)n2)cc(OC)c1OC,207 °C
16,N#Cc1ccc(CCC(=O)c2ccc(C#N)cc2)cc1,149 to 152 °C
17,NC(=O)c1nnn(Cc2ccccc2Br)c1N,211 to 213 °C
18,COC(=O)C1=Cc2cc(-c3ccc(OC(F)(F)F)cc3)ccc2S(=O)(=O)CC1,142 to 143 °C
19,Cc1ccc2cccc(OCc3c(Cl)ccc(C(=O)NCCN4C(=O)c5ccccc5C4=O)c3Cl)c2n1,210 to 212 °C
20,CC(=O)Nc1ccc(Nc2c(NCc3ccccc3)cc(C(=O)O)cc2S(=O)(=O)Nc2ccccc2NC(C)=O)cc1,268 °C
21,COCCSc1ccccc1S(N)(=O)=O,127 to 130 °C
22,CC(C)Nc1nc(-c2ccccc2)c(-c2ccc(=O)n(C(C)C)n2)s1,138 to 139 °C
23,O=C(CC(=O)C(F)F)c1ccc(N2CCOCC2)cc1,102 to 103 °C
24,CC(C)CC1(C(CCN2C(=O)c3ccccc3C2=O)C(=O)NO)CCN(CCc2ccccc2)C1=O (stereo not drawn),102 to 105 °C
25,CCCC(=O)Nc1c2c(nc3ccccc13)CCCC2,202 to 204 °C

row,Compound,melting point
1,NP(N)(=O)Oc1ccc2cccc(NS(=O)(=O)c3ccc([N+](=O)[O-])cc3)c2c1,234 to 235 °C
2,CC(C)(O)c1cc(Br)ccc1NC(=O)CCl,133 to 134 °C
3,O=C(O)CC1(CCl)OCCO1,64 to 65 °C
4,NS(=O)(=O)c1ccc2cc(O)c(O)cc2c1,218 to 228 °C
5,COCn1nc(N)c2cc(S(=O)(=O)C(C)C)cc(OCCc3ccccn3)c21,140 to 142 °C
6,N#Cc1c(N)oc2c1CCCC2,179 °C
7,CC(C)N(CCn1c(-c2ccc(O)cc2)cc2c1CCCC2)C(C)C,112 to 114 °C
8,CC(=O)c1nc(-c2ccc(C)nc2Cl)[nH]c1C,156 to 158 °C
9,Nc1c(F)c(F)cc(F)c1[N+](=O)[O-],66 °C
10,O=c1ccoc(C(O)c2ccccc2F)c1OCc1ccccc1 (stereo not drawn),116 °C
11,c1ccc(C2COc3ccccc3C2)cc1 (stereo not drawn),54 to 56 °C
12,O=C1c2ccccc2C(=O)N1CCCc1cccnc1,88 to 89 °C
13,O=C(O)Cc1ccc(OCc2ccc3ccccc3n2)c(-n2cccc2)c1,173 °C
14,Nc1ccc(-c2noc3cc(F)ccc23)cc1[N+](=O)[O-],239 °C
15,COc1ccc2c(c1F)OCc1c(C(F)(F)F)nn(-c3ccc(S(N)(=O)=O)cc3)c1-2,133 to 138 °C
16,Cc1c(CC(=O)O)c2cc3c(cc2n1C(=O)C=Cc1ccccc1)OCO3,190 to 191 °C
17,CCCCCCCCCCCCCC(=O)N(CCCCCCCC)CCC(=O)O,47 °C
18,O=C(N[C@H](Cc1ccc(C(F)(F)F)cc1)[C@@H](O)c1ccc(F)cc1)c1cccc(Oc2ccccc2)c1 (racemic),144 to 145 °C
19,CCCN(CCC)CCCn1cc(Br)c2c3c(c(-c4ccccc4Cl)cc21)C(=O)NC3=O,173 to 175 °C
20,NS(=O)(=O)c1cc(CCNC(=O)C=Cc2cccs2)ccc1OCC1CCCCO1 (stereo not drawn),106 °C
21,O=C(O)COc1ccc2cc(-c3cnc(Cc4ccc5ccccc5c4)o3)ccc2c1,258 to 260 °C
22,CCOC(=O)C(Cc1ccc(OC)cc1)(C(=O)OCC)c1cc2cc(Br)ccc2s1,58 to 60 °C
23,O=[N+]([O-])CS(=O)(=O)c1c(F)c(F)cc(F)c1F,86 to 87 °C
24,Clc1ccc(Cl)c(CN2CCNc3ncc(-c4ccc(N5CCCC5)nc4)cc32)c1,> 200 °C
25,O=c1cc(SCc2ccc(O)cc2)oc2cc(O)cc(O)c12,222 to 225 °C

row,Compound,melting point
1,CN(C)c1c(-c2ccc(Cl)cc2)sc2ccccc12,81 to 83 °C
2,O=c1c(OCC2CC2)cn(-c2cccc(C(F)(F)F)c2)nc1-c1ccnn1-c1ccccc1,72 to 78 °C
3,O=C(O)Cc1ccc2c(c1)CC(CNS(=O)(=O)c1ccccc1)C2 (stereo not drawn),140 to 141 °C
4,O=C(O)c1ccc(N2C3CCC2CN(CC(=O)N2CC=C(c4cccc5ccsc45)CC2)C3)nc1,121 to 122 °C
5,COc1ccccc1C(Cl)=C(Cl)n1ccnc1,101 °C
6,O=C(NC1CCN(CCc2ccc(F)cc2)C1)C12CC3CC(CC(C3)C1)C2 (stereo not drawn),114 to 116 °C
7,O=C1Nc2cccnc2C(=O)N2CCCC12 (stereo not drawn),249 to 250 °C
8,CN(C)c1ccc2c(c1)Sc1cc(N(C)C)ccc1N2C(=O)c1cc(C(C)(C)C)c(O)c(C(C)(C)C)c1,212 to 216 °C
9,CN(C)c1cc(Br)cc(Sc2ccc([N+](=O)[O-])cc2)c1,102 to 104 °C
10,COc1cc(Oc2cccc(OC(F)(F)F)c2)nc(C(=O)Nc2ccccc2)c1,95 to 98 °C
11,COC(=O)c1ccc2oc(CCc3cc4cc(C(=O)OC)ccc4o3)cc2c1,165 to 167 °C
12,Cc1ncc(CSC(=O)c2cccc(C(=O)SCc3cnc(C)c(O)c3CO)c2)c(CO)c1O,185 to 187 °C
13,O=CNC1=NN(c2cccc(Cl)c2)CC1,143 to 145 °C
14,CC1(CCc2ccccc2)OC(=O)CC(=O)O1,63 to 65 °C
15,CC(C)n1cc(C(=O)C(F)(F)F)c2ccc(C(F)(F)F)cc21,92 to 93 °C
16,N#Cc1c(N2CCCCC2)cc(-c2ccc3ccc4cccc5ccc2c3c45)c2c1Cc1ccccc1-2,168 to 169 °C
17,CC(C)(C)N(Cc1ccccc1)CC(O)c1ccc(OCc2ccccc2)c2[nH]c(CO)cc12 (stereo not drawn),136 °C
18,CCOC(=O)/C(=N/OC)c1ccc(OCCOc2ccc3ccccc3c2)s1,132 to 134 °C
19,COc1ccccc1-n1c(=O)[nH]c2c(C(N)=O)nc(C3CCCC3)nc21,244 to 246 °C
20,O=C(O)CCC(=C1SCCCS1)c1ccc(Oc2ccccc2)cc1,154 to 155 °C
21,CS(=O)(=O)c1ccc(C(=O)N[C@H]2CC[C@H](CCN3CCC(c4cccc5c4CCO5)CC3)CC2)cc1,236 °C
22,CCCCCCC(C(=O)N1CC(O)CC1C(=O)O)n1cnc2cc(-c3ccccc3-c3nn[nH]n3)ccc21 (stereo not drawn),155 to 160 °C
23,CN1CCC(NC(=O)C2c3ccccc3NC(=O)c3ccccc32)CC1 (stereo not drawn),230 to 231 °C
24,c1cc(OC[C@H]2CO2)cc(-c2noc3ncccc23)c1,91 to 93 °C
25,O=C1NCc2ccc3ccccc3c21,138 to 141 °C

row,Compound,melting point
1,CCCc1ccc(OCCC(C)C)c2c(=O)cc(C(=O)O)oc12,64.5 to 65 °C
2,CC(=Cc1c2n(c3ccncc13)CCC2)[N+](=O)[O-],141 to 142 °C
3,COC(=O)C1Cc2c([nH]c3ccccc23)CN1 (stereo not drawn),164 to 165 °C
4,CC(=O)N(CCCCN1CCN(c2csc3cc(F)ccc23)CC1)C(=O)C(C)C,98 to 99 °C
5,Cc1cc(C)c(S(=O)(=O)ON)c(C)c1,90 to 91 °C
6,O=c1ccnc(NCCCN(Cc2ccccc2Cl)c2ccccn2)[nH]1,153 to 154 °C
7,Cn1ccnc1CNC(=O)c1[nH]c2ccc(Cl)cc2c1S(=O)(=O)c1cccc(Cl)c1,232 to 234 °C
8,CC1Oc2ccc(CCl)cc2NC1=O (stereo not drawn),162 to 169 °C
9,O=C1N(N2CCOCC2)c2ccccc2C1(Cc1ccccc1)Cc1ccccc1,179 to 180 °C
10,CCCCCCCCCCCCS(=O)(=O)c1ccccc1[N+](=O)[O-],47 to 48 °C
11,Oc1cc(/C=C/c2ccccn2)n(-c2ccccc2)n1,167 to 168 °C
12,CC(C)Nc1nc(NC(C)C)nc(OC(F)F)n1,81 to 82 °C
13,O=C(Nc1ccc2c(c1)OC=C1CN(C(=O)OCc3ccccc3)C=CN12)OCc1ccccc1,118 to 120 °C
14,CCCCc1nn(-c2cc(NC(=O)c3ccccc3)ccc2C(F)(F)F)c(=O)n1Cc1ccc(-c2ccccc2S(=O)(=O)NC(=O)OC(C)(C)C)cc1F,117 to 120 °C
15,CCOC(=O)C(C#N)=CNc1ncccc1C,139 to 143 °C
16,CN1CCC(c2c[nH]c3ccc(NC(=O)c4ccccc4F)nc23)CC1,125 to 126 °C
17,COc1cc(N)c(Cl)cc1C(=O)NCCN(C)C1CC1,164 to 165 °C
18,CN1CCN(CCCNc2ncc3cc(-c4c(Cl)cccc4Cl)c(NC(=O)Nc4ccc(C(F)(F)F)cc4)nc3n2)CC1,146 to 151 °C
19,COCc1nc2c(C(F)(F)F)cccc2c(=O)o1,104 to 106 °C
20,COc1ccc2c(C(=O)Nc3ccc(CN4CCN(C)CC4)c(C(F)(F)F)c3)nsc2c1,156 °C
21,CCN(CC)CCNC(=O)c1cccc2c(=O)c(C)c(-c3ccc(OC)cc3)oc12,126 to 127 °C
22,CC(C)(C)OC(=O)N1CCC(c2nc3cc(-c4ccc(C(N)=O)c(Cl)c4)ccc3o2)CC1,169 to 171 °C
23,Oc1ccc2cc(-c3nc4ccc(O)cc4o3)ccc2c1,288 to 290 °C
